This is an account of results in patent publication EP2072513A1, “A cyano piperidinyl-phenil-oxazolidinone and use thereof” (Ferrer Internacional, S.A., priority 2007, dated 2009).

Data set [1] can be described thus: Equilibrium solubility of polymorphic forms in solvent systems. The class given is physicochemical. How it is done: Table 1: Equilibrium solubilities of polymorphic form B. Solubility studies were also performed for polymorphic form A. In Table 2 appear the data obtained. Table 2: Equilibrium solubilities of polymorphic form A.
The test system of data set [2] is S. aureus ATCC 25923 MS 319. Briefly: MIC, standard micro dilution method (NCCLS M7-A5). The class given is cell-based. The conditions noted are these: Staphylococcus aureus, ATCC25923.
Data set [3] relates to S. aureus ATCC 43300 MR 214. Briefly: MIC, standard micro dilution method (NCCLS M7-A5). The class given is cell-based. The conditions noted are these: Staphylococcus aureus, ATCC43300.
Data set [4] has as its system S. aureus clinical strain cfr methylase 432. Briefly: MIC, standard micro dilution method (NCCLS M7-A5). As to conditions: Staphylococcus aureus; S. aureus clinical strain cfr methylase 432 (linezolid-resistant). The format is cell-based.
Data set [5] relates to S. epidermidis ATCC 12228 MR 11. Briefly: MIC, standard micro dilution method (NCCLS M7-A5). The conditions noted are these: Staphylococcus epidermidis, ATCC12228. The format is cell-based.
Data set [6] has as its system S. pneumoniae ATCC 49619 PR 215. Briefly: MIC, standard micro dilution method (NCCLS M7-A5). The class given is cell-based. As to conditions: Streptococcus pneumoniae, ATCC49619.
In data set [7] the test system is E. faecalis ATCC 29212 53. Briefly: MIC, standard micro dilution method (NCCLS M7-A5). The class given is cell-based. The conditions noted are these: Enterococcus faecalis, ATCC29212.
Data set [8] concerns E. faecium ATCC 10541 13. Briefly: MIC, standard micro dilution method (NCCLS M7-A5). As to conditions: Enterococcus faecium, ATCC10541. The format is cell-based.
Data set [9] concerns B. fragilis ATCC 25285 A12. Briefly: MIC, standard micro dilution method (NCCLS M7-A5). The class given is cell-based. As to conditions: Bacteroides fragilis, ATCC25285; B. fragilis ATCC 25285 A12, anaerobic, Brucella Blood medium.
In data set [10] the test system is Moraxella catarrhalis HCl-78 259/339. Briefly: MIC, standard micro dilution method (NCCLS M7-A5). The class given is cell-based. As to conditions: HCL78259/339.
The target of data set [11] is T1, human MAO-A (Homo sapiens, UniProt P21397).
T1 construct: purchased Gentest, BD, USA; host or cells: SF9 insect cells (membranes)
T1 sequence (P21397 1-527): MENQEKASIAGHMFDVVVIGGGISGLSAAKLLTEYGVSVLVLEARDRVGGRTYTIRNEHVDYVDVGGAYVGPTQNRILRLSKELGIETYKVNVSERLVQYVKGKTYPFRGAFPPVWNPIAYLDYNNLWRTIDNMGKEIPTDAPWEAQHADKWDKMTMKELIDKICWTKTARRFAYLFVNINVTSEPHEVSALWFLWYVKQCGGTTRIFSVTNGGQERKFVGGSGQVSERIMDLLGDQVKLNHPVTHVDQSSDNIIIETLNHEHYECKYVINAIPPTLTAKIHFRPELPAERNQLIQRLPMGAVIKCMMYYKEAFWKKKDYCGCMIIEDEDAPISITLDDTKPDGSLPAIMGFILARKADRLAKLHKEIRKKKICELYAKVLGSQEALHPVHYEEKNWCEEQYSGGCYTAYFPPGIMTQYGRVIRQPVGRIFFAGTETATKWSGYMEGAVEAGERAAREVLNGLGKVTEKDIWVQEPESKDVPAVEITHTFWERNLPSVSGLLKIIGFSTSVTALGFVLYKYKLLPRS
Briefly: In vitro MAO-A enzymatic activity (kynuramine substrate, fluorescence). As to conditions: membranes from SF9 cells, kynuramine 30 µM, 37° 40 min. The class given is biochemical. How it is done:
(§1) MAO-A and MAO-B enzymatic activities were measured using membranes obtained from SF9 cells expressing either human MAO-A or human MAO-B (Gentest, BD, USA). Assays were done in blank 96-well micro titter plates using kynuramine as substrate and measuring the formation of 4-hydroxyquinoline by fluorescence at 340 nm/465 nm. Briefly, membranes with MAO-A (0.006 mg/mL protein) and MAO-B (0.015 mg/mL protein) were incubated with kynuramine, 30 µM, at 37° for 40 min in the presence of the compound in a final volume of 200 µL. Reactions were stopped by adding NaOH 2N and the reaction product, 4-hydroxyquinoline, was determined by fluorometry using a Tecan Ultra reader.

The test system of data set [12] is Moxarella, Pasteurella and Bacteroides spp. The conditions noted are these: cited from earlier work.
The nature of data set [13]: Suspension equilibration experiments (relative stability of polymorphic forms). As to conditions: at room temperature (17-30 °C). The format is physicochemical. The text has this: However, a mixture of polymorphic form A and B in water slowly converted into pure polymorphic form B as well. Similarly, a suspension containing a mixture of polymorphic forms B and C in ethanol converted into polymorphic form B after some time.

The target in data set [14] is T2, human MAO-B (Homo sapiens, UniProt P27338).
T2 construct: purchased Gentest, BD, USA; host or cells: SF9 insect cells (membranes)
T2 sequence (P27338 1-520): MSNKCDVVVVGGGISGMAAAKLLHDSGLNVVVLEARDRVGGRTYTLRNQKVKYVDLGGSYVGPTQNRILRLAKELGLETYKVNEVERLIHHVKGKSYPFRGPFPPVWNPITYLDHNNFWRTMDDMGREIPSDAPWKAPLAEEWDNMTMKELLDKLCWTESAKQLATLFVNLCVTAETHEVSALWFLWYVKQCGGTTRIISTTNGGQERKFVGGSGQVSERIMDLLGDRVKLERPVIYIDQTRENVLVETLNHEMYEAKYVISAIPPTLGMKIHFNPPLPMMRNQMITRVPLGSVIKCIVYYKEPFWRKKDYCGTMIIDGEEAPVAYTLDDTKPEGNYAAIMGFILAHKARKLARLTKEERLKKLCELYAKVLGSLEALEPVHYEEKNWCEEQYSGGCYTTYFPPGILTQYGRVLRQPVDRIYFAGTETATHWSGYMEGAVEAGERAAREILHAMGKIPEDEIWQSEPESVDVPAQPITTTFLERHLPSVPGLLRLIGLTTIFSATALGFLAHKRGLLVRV
Nature of the data set: In vitro MAO-B enzymatic activity (kynuramine substrate, fluorescence). The class given is biochemical. The conditions noted are these: membranes from SF9 cells, kynuramine 30 µM, 37° 40 min. As to the method:
as §1

Converted amounts (≈) assume the structure as drawn. Where two headings read alike, the source gives them in different places.

For orientation: Solubility means the dissolved amount per volume that the medium holds. Turning to `CC(=O)NC[C@H]1CN(c2ccc(N3CCC(C#N)CC3)c(F)c2)C(=O)O1` [polymorphic form A, (S)-N-{3-[4-(4-cyano-piperidin-1-yl)-3-fluoro-phenyl]-2-oxo-oxazolidin-5-ylmethyl}-acetamide], the “Solubility” value in data set [1] (Ethanol) is 6300 to 7300 µg/mL; in data set [1] (Ethyl acetate), 11800 to 15400 µg/mL; in data set [1] (Water (Fluka 95305), pH 8.9), 390 µg/mL (≈ 1080 µM); in data set [1] (water, pH 8.7, water, thermodynamic from solid, Water (Fluka 95305), pH 8.7, read-out: Solubility), 400 µg/mL (≈ 1110 µM).

Usually MIC stands for the lowest concentration found to suppress growth. Low values mean inhibition by little substance, high ones a need for much substance. Usually Ki stands for the equilibrium dissociation constant of an inhibitor or competing ligand from its target. Low readings indicate a stronger hold on the target, high ones a looser hold on the target. As to `CC(=O)NC[C@H]1CN(c2ccc(N3CCOCC3)c(F)c2)C(=O)O1` [Linezolid, N-[[(5S)-3-[3-fluoro-4-(4-morpholinyl)phenyl]-2-oxo-5-oxazolidinyl]methyl]acetamide, reference compound], the MIC in [2] is 1 µg/mL (≈ 2.96 µM); in data set [3], 1 µg/mL (≈ 2.96 µM); in data set [4], 16 to 32 µg/mL (≈ 47.4 to 94.9 µM); in data set [5], 1 µg/mL (≈ 2.96 µM); in data set [6] it was 1 µg/mL (≈ 2.96 µM); in data set [7], 0.5 µg/mL (≈ 1.48 µM). For the same compound, the minimum inhibitory concentration (MIC) in data set [8] is 1 µg/mL (≈ 2.96 µM); in data set [9], 2 µg/mL (≈ 5.93 µM); in data set [10] it was 2 µg/mL (≈ 5.93 µM). Further, the inhibition constant (Ki) in data set [11] stood at 6.96 µM. For the same compound, in data set [12], the MICs was 2 to 8 µg/mL.

As for `CC(=O)NC[C@H]1CN(c2ccc(N3CCC(C#N)CC3)c(F)c2)C(=O)O1` [polymorphic form B, (S)-N-{3-[4-(4-cyano-piperidin-1-yl)-3-fluoro-phenyl]-2-oxo-oxazolidin-5-ylmethyl}-acetamide], the “Solubility” value in data set [1] (Ethanol) turned out to be 2600 µg/mL (≈ 7210 µM); in data set [1] (Ethyl acetate) it was 2900 µg/mL (≈ 8050 µM); in data set [1] (water, pH 8.9, water, thermodynamic from solid, Water (Fluka 95305), pH 8.9, read-out: Solubility) it was 240 µg/mL (≈ 666 µM). Besides, the “relative stability of the polymorphic forms” value in data set [13] is on record as “the most stable one”.

On to `CC(=O)NC[C@H]1CN(c2ccc(N3CCC(C#N)CC3)c(F)c2)C(=O)O1` [Compound (Ia), (S)-N-{3-[4-(4-cyano-piperidin-1-yl)-3-fluoro-phenyl]-2-oxo-oxazolidin-5-ylmethyl}-acetamide], for which the MIC came out at 1 µg/mL (≈ 2.77 µM) in data set [2]; 1 µg/mL (≈ 2.77 µM) in data set [3]; 2 µg/mL (≈ 5.55 µM) in [4]; 1 µg/mL (≈ 2.77 µM) in [5]; 0.5 µg/mL (≈ 1.39 µM) in data set [6]; 1 µg/mL (≈ 2.77 µM) in data set [7]. Besides, the MIC amounted to 0.5 µg/mL (≈ 1.39 µM) in data set [8], 1 µg/mL (≈ 2.77 µM) in [9] and 1 µg/mL (≈ 2.77 µM) in data set [10]. Further, the inhibition constant Ki in data set [11] worked out at 1.05 µM; in data set [14], 2.45 µM.
